Entries after “also recorded” stand apart in the source; their conditions may differ.
Legend:
σ-2 receptor = σ-2 receptor (Rattus norvegicus (Rat), UniProt Q5U3Y7); test: σ-2 receptor binding in rat brain homogenates ([3H]DTG plus (+)-pentazocine); details: read-out: Ki (nm) σ2; compound listing tables
Description: Compounds were evaluated for σ-1 and σ-2 binding in rat brain homogenates. […] The assays were terminated with ice-cold 10 mM Tris-HCl, pH 8.0, followed by two washes through glass fiber filters that were pre-soaked for at least 30 min in 0.5% polyethyleneimine.

[1] = Metabolic stability of AZ_66 in rat liver microsomes; type: in vitro ADME
Description: Metabolic stability of AZ_66 (1 μM) was performed in Ammonium acetate buffer (50 mM, pH 7.4) with Rat liver microsomes (0.5 mg) at 37° C. in 0.5 ml of incubation mixture. The incubation mixture composed of Ammonium acetate buffer (50 mM, pH 7.4), Magnesium chloride (3 mM), NADPH regenerating system consisting of NADP (1 mM), glucose-6-phosphate (5 mM), and glucose-6-phosphate dehydrogenase (1 Unit/mL). The Substrate and microsomes were pre incubated at 37° C. for 5 min before starting the reaction. The reactions were started by the addition of regenerating system and carried out at 37° C. in a shaking water bath for 60 min. The incubations were stopped by adding equal volume of ice cold acetonitrile at predetermined time points (0, 5, 15, 30, 60 min). The samples were centrifuged for 10 min at 4° C. and the supernatant was injected in to UPLC/MS/MS. Control incubation without NADPH was also performed and these served as 100% value. All microsomal incubations were conducted using the same lot of microsomes.
In vitro half-life and CLint: The percent of the parent compound remaining is plotted versus time. The slope of the line gives the rate constant k for the disappearance of parent compound, from which an in vitro t1/2 can be calculated. CLint can be calculated using the following formula
[formula] [V] is the incubation volume in μl and [P] is the amount of microsomal protein in the incubation.

Swiss Webster mice [2] = test: Cocaine-induced convulsions; type: in vivo, mouse; details: i.p. pretreatment 15 min before cocaine 70 mg/kg i.p.
Swiss Webster mice [3] = test: Methamphetamine-induced dopamine depletions; type: in vivo, mouse; details: methamphetamine 5 mg/kg x4 at 2 hr intervals, striatal dopamine one week later
Description: Male, Swiss Webster mice were injected (i.p.) with saline or compound (0-20 mg/kg), followed 15 min later with either saline (-METH) or methamphetamine (5 mg/kg) at 2 hr intervals, a total of four times. Striatal dopamine levels were measured one week later.

Swiss Webster mice [4] = test: Expression of cocaine-induced sensitization; type: in vivo, mouse; details: compound on Day 15 before cocaine 10 mg/kg i.p.
Description: Male, Swiss Webster mice were acclimated as detailed above. For five consecutive days (Days 1-5), the mice were pretreated (i.p) with saline, then challenged 15 min later with cocaine (10 mg/kg, i.p.). The total locomotor activity (ambulatory, fine and rearing movements) of the mice was recorded for the next 30 min. A 10 day drug free period followed and on Day 15, the mice were administered saline (i.p.) or compound (0.1-20 mg/kg), followed 15 min later with cocaine (10 mg/kg, i.p.). Locomotor activity was then recorded for the next 30 min.

opioid receptors = test: Non-σ competition binding, opioid receptors ([3H]bremazocine); details: rat brain homogenates
Description: (§1) Compounds were tested at various non-σ target sites to evaluate selectivity because cocaine interacts with these sites (dopamine, serotonin and norepinephrine transporters) or historic “sigma” ligands interact with them (opioid, NMDA, dopamine D2, 5-HT2 receptors). The compounds were tested in competition binding assays using rat brain homogenates as previously published. […] The results were reported as Ki in nM.

Swiss Webster mice [5] = test: Cocaine-induced locomotor activity; type: in vivo, mouse; details: i.p. pretreatment 15 min before cocaine 20 mg/kg i.p.
Description: Male, Swiss Webster mice were acclimated to the treatment room and then to the chambers of the automated activity monitoring system (San Diego Instruments, San Diego, Calif.). […] The total locomotor activity (ambulatory, fine and rearing movements) of the mice was recorded for the next 30 min as the number of disruptions made by them in the 16×16 photobeam grid of their testing chamber.

Swiss Webster mice [6] = test: Methamphetamine-induced locomotor activity; type: in vivo, mouse; details: i.p. pretreatment 15 min before methamphetamine 1 mg/kg i.p.
Description: (§2) Male, Swiss Webster mice were acclimated as detailed above. […] The total locomotor activity (ambulatory, fine and rearing movements) of the mice was recorded for the next 30 min as the number of disruptions made by them in the 16×16 photobeam grids surrounding their testing chambers.

[7] = Partition coefficient (Log P / Log D), shake-flask n-octanol and water/PBS; type: physicochemical; details: read-out: experimental Log P O/W±SD
Description: Using the Shake-flask method, 47 n-Octanol and water/PBS, pH 7.4 (equal quantity) were added to a glass vial (25 ml). […] Water/PBS, pH 7.4 phase was brought into a vessel together with a Teflon-coated magnetic stirring bar. The n-octanol phase containing the known quantity of test substance was poured very carefully on top of the aqueous phase in order to avoid emulsion formation as far as possible. […] The contents were allowed to separate on standing and then centrifuged. An aliquot of aqueous layer was taken and diluted (1000 times) for quantitative analysis by UPLC/MS/MS.

[8] = type: in vitro ADME
Swiss Webster mice [9] = test: In vivo cocaine studies with CM304 (cocaine-induced convulsions); details: 0.001-10 mg/kg i.p. 15 min before cocaine 70 mg/kg i.p., hydrochloride
59 targets (non-sigma) = test: NovaScreen and in-house profile of 59 targets; type: binding; details: nine targets
Description: Competition binding assays were performed as previously described. Briefly, radioligands were used to tag the targeted sites under standard conditions.

[10] = In vitro half-life in mouse liver microsomes; type: in vitro ADME
Description: The reaction was initiated by adding cofactors and quenched at designated time points (0, 5, 10, 15, 30, 45, 60 min) by addition of an equal volume of ice-cold acetonitrile (ACN). […].
The basic incubation mixture consisted of 5 mM substrate, 1 mg/mL microsomal protein, 3 mM MgCl2, 1 mM NADP, 5 mM glucose-6-phosphate, 1 IU/mL glucose-6-phosphate dehydrogenase, 100 mM Tris HCl buffer (pH 7.4) in a final volume of 1 mL. The reaction was initiated by adding cofactors and quenched at designated time points (0, 5, 10, 15, 30, 45, 60 min) by addition of an equal volume of ice-cold ACN. The mixture was centrifuged at 3000 rpm for 10 min, and the supernatant was analysed by UPLC/MS/MS.

σ-1 receptor = σ-1 receptor (Homo sapiens (Human), UniProt Q99720); details: literature, cited from earlier work
Chain of σ-1 receptor (Q99720 whole entry, species assumed): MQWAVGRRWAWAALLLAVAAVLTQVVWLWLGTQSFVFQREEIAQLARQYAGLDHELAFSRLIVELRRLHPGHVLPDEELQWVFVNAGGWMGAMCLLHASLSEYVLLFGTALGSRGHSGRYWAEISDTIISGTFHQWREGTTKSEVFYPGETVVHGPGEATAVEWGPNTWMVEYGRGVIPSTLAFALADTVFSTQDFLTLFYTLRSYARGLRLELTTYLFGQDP

NMDA receptors = test: Non-σ competition binding, NMDA receptors ([3H]TCP); details: rat brain homogenates
Description: as §1

Swiss Webster mice [11] = test: Development of cocaine-induced sensitization; type: in vivo, mouse; details: pretreatment Days 1-5, cocaine 10 mg/kg i.p., test Day 15
Description: as §2, with “of” for “surrounding”, “chamber on each of the five days. A 10 day drug-free period followed. On Day 15, all of the mice were pre-administered (i.p.) saline followed by cocaine (10 mg/kg, i.p.), and locomotor activity quantified for the next 30 min.” for “chambers.”

5-HT2 receptors = 5-HT2 receptors (Rattus norvegicus (Rat), UniProt P14842); test: Non-σ competition binding, 5-HT2 receptors ([3H]ketanserin); details: rat brain homogenates
Chain of 5-HT2 receptors (P14842 whole entry): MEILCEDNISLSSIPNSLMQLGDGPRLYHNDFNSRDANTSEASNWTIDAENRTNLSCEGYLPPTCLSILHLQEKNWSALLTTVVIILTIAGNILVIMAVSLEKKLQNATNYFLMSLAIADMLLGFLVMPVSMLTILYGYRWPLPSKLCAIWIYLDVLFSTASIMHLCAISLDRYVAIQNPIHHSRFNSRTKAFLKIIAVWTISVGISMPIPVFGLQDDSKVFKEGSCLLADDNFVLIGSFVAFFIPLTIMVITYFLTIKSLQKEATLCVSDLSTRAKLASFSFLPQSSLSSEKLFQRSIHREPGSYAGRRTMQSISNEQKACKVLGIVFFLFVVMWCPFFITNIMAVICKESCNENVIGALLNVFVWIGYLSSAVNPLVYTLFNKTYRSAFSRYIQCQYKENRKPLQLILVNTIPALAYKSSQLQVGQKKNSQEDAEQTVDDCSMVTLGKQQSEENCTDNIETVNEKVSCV
Description: as §1

dopamine D2 receptors = dopamine D2 receptors (Rattus norvegicus (Rat), UniProt P61169); test: Non-σ competition binding, dopamine D2 receptors ([3H](−)-sulpiride); details: rat brain homogenates
Chain of dopamine D2 receptors (P61169 whole entry): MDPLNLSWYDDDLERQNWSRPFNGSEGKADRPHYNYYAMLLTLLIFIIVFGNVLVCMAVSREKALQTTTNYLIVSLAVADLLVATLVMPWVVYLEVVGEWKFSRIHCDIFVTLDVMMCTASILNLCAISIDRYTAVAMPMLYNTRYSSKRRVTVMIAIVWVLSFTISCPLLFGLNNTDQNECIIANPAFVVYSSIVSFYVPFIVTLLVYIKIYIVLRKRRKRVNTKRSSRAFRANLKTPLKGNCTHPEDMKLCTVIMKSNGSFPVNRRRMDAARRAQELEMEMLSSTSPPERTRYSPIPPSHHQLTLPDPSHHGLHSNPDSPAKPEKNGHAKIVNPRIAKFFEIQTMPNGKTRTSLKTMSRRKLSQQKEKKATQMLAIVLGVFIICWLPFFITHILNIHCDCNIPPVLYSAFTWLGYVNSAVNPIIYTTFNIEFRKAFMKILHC
Description: as §1

mouse brain = details: mice, literature; cited from earlier work
[12] = target: σ-1 receptor (CHO cells transfected with σ-1 receptor cDNA) (Homo sapiens (Human), UniProt Q99720); test: Cell uptake studies in transfected CHO cells; details: 120 min
Chain of σ-1 receptor (CHO cells transfected with σ-1 receptor cDNA) (Q99720 whole entry): as the sequence (Q99720 whole entry, species assumed) above
Description: Control CHO cells (transfected with a vector not containing the σ-1 receptor gene—to serve as a negative control) and CHO cells transfected with a vector containing σ-1 receptor cDNA (to serve as a positive control for σ-1 receptor expression in cells) were used for the uptake assays. […] The incubated cells were subsequently washed, lysed and counted for radioactivity. All collected data were normalized for amount of protein present in each well.
Cells CHO cells were grown in Ham's F-12 medium. For uptake studies CHO cells were transfected using Lipofectamine 2000 (Invitrogen, Carlsbad, Calif., USA) and either pcDNA (empty vector, negative control) or σ-1 receptor gene (OPRS1, accession number NM_005866.2, OriGene, Rockville, Md., USA) following manufacturers directions. […] Twenty-four hours later, CHO cells were transfected with either 0.8 μg pcDNA (empty vector, control), or 0.8 μg sigma-1 DNA. […] A portion of each lysate (250 μL) was transferred to a glass tube and activity was measured with a Cobra II γ counter (Packard-Perkin Elmer, Waltham, Mass., USA). Protein content from each well was measured by Bradford assay. The same protocol was followed for (+)-[^3H]pentazocine, except the activity was measured with a liquid scintillation counter (Beckman Coulter LS 6500, Brea, Calif., USA).

rat brain = details: literature; cited from earlier work

Chain of σ-2 receptor (Q5U3Y7 whole entry): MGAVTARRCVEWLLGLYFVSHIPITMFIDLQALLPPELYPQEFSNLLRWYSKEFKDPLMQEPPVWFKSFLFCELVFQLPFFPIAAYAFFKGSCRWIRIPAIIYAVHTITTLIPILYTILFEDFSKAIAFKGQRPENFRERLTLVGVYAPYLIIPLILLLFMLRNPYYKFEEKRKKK

Work on `CC(CCCn1c(=O)sc2cc(F)ccc21)N1CCN(C2CCCCC2)CC1` (stereo not drawn) [AZ-66] yielded a Ki (σ-2 receptor) of 1.76 ± 0.34 nM, a CLint whole liver ([1]; AZ_66 1 μM, rat) of 0.002434 L/min and a half-life at 1 μM ([1]; pH 7.4, rat liver microsomes, 1 μM, 0-30 min linear part, read-out: estimated t1/2 for disappearance) of 116 ± 15 min. The “added substrate metabolized by 60 min” value ([1]; rat liver microsomes, 60 min) was “about 25%” and the microsomal CLint at 1 μM ([1]; rat, rat liver microsomes, pH 7.4, read-out: estimated CLint from microsomes) was 6 µL/min/mg.
For `S=c1sc2ccccc2n1CCCCN1CCN(C2CCCCC2)CC1` [CM156], the “attenuation of cocaine-induced convulsions” value (Swiss Webster mice [2]) was “significant attenuation; also recorded: attenuates the convulsive effects of cocaine”, the “attenuation of methamphetamine-induced dopamine depletions (neurotoxic effects)” value (Swiss Webster mice [3]) was “attenuated; also recorded: attenuates methamphetamine-induced dopamine depletions” and the “attenuation of expression of cocaine-induced sensitization” value (Swiss Webster mice [4]) was “significant attenuation; also recorded: attenuates the expression of cocaine-induced sensitization”. For the same compound, the Ki (opioid receptors) was > 10 µM, the “attenuation of cocaine-induced locomotor activity” value (Swiss Webster mice [5]) was “significant attenuation; also recorded: attenuates cocaine-induced locomotor activity” and the “attenuation of methamphetamine-induced locomotor activity” value (Swiss Webster mice [6]) was “attenuated the locomotor stimulant effects of methamphetamine; also recorded: attenuates methamphetamine-induced locomotor activity”.
In the case of `Cl.O=c1sc2cc(CCCF)ccc2n1CCN1CCCCCC1` [CM304, 3-(2-(azepan-1-yl)ethyl)-6-(3-fluoropropyl)benzo[d]thiazol-2(3H)-one hydrochloride], the logP [7] is reported as -0.15 ± 0.05, the “clearance in rat liver microsomes” value [8] is reported as 0.18 mL/min/g and the “attenuation of cocaine-induced convulsions by CM304” value (Swiss Webster mice [9]) is reported as “significantly attenuated cocaine-induced convulsions at all doses examined”. For the same compound, the “displacement of the radioligand at 100 nM” value (59 targets (non-sigma); 100 nM screening concentration) was < 20%, the “displacement of the radioligand at 10,000 nM” value (59 targets (non-sigma); 10,000 nM screening concentration) was > 50% and the “clearance in mouse liver microsomes” value [10] was 0.55 mL/min/g. It also gave a half-life at 5 mM ([10]; mouse, microsomes, pH 7.4) of 4.2 min.
For `CCCc1ccc2c(c1)sc(=O)n2CCN1CCCCC1` [SN56], the “Selectivity Ratio for the σ-1 receptor (reported)” value (σ-1 receptor) is given as > 1000 and the Ki (σ-1 receptor; read-out: Ki at σ-1 receptor (reported)) is given as 0.56 nM.
With `CC(=O)c1ccc2c(c1)oc(=O)n2CCCCN1CCN(c2ccc(F)cc2)CC1.Cl.Cl` [SN-79] the Ki (NMDA receptors) was > 10 µM, the “attenuation of cocaine-induced convulsions” value (Swiss Webster mice [2]) was “significant attenuation; also recorded: attenuates the convulsive effects of cocaine” and the “attenuation of expression of cocaine-induced sensitization” value (Swiss Webster mice [4]) was “attenuates the expression of cocaine-induced sensitization”. For the same compound, the Ki (opioid receptors) was > 10 µM, the “attenuation of development of cocaine-induced sensitization” value (Swiss Webster mice [11]) was “significant attenuation; also recorded: attenuates the development of cocaine-induced sensitization” and the Ki (5-HT2 receptors) was 320 ± 16 nM. For the same compound, the Ki (dopamine D2 receptors) was > 10 µM and the “attenuation of cocaine-induced locomotor activity” value (Swiss Webster mice [5]) was “significant attenuation; also recorded: attenuates cocaine-induced locomotor activity”.
For `O=C(Cc1ccccc1F)NC1CCN(Cc2ccc([18F])cc2)CC1` [[^18F]FBFPA, N-[^18F]4′-fluorobenzylpiperidin-4yl-(2-fluorophenyl) acetamide, reference compound], the “affinity for σ-2 receptor/σ-1 receptor (reported)” value (σ-1 receptor) is given as 44.
In the case of `COc1cc(CCN2CCN(CCCc3ccccc3)CC2)ccc1OC[18F]` [[^18F]FM-SA4503], the “time of maximum uptake in the brain” value (mouse brain) is listed as 30 minutes post injection.
For `O=c1sc2cc(CCC[18F])ccc2n1CCN1CCCCCC1` [[^18F]FTC-146, 6-(3-fluoropropyl)-3-(2-(azapan-1-yl)ethyl)benzo[d]thiazol-2(3H)-one], the “uptake in cells transfected with σ-1 receptor cDNA versus control CHO cells” value [12] was 4 fold.
In the case of `N#Cc1ccc(OCC2CCN(CC[18F])CC2)cc1` [[^18F]SFE], the “reduction in peak uptake in rat brain over a 90 min period” value (rat brain) is listed as 40%.
For `[17F]CCC1OC2(CCN(Cc3ccccc3)CC2)c2ccccc21` (stereo not drawn) [[^18F]fluspidine], the “brain level at 60 minutes post injection relative to maximum (reported)” value (mouse brain) is given as 81 % of its maximum.

Reference: patent publication US9604926B2 (THE UNIVERSITY OF MISSISSIPPI, priority 2007, dated 2017)
